Reference: the NIST ThermoML archive (doi:10.1021/acs.jced.7b00999)
Numbers after ± are expanded uncertainties.

Conditions: Liquid, Ebulliometric method (Recirculating still)

SMILES: CCCCCCC [heptane]
- vapor or sublimation pressure (371.58 K): 100 ± 1 kPa

SMILES: CC1CCCCC1 [methylcyclohexane]
- vapor or sublimation pressure (374.08 K): 101.3 ± 1 kPa

SMILES: CCC(C)OC(C)=O (stereo not drawn) [1-methylpropyl ethanoate]
- vapor or sublimation pressure (385.15 K): 101.3 ± 1 kPa
